Reference: patent US20070286888A1, “Additive For Feeds And Feed Containing The Same” (Kabushiki Kaisha Yakult Honsha, priority 2004, published 2007)

Legend:
[1] = tested on: horse gastric mucosal epithelial cell; assay: Cell adhesion test to horse gastric mucosal epithelial cell; assay type: cell-based; details: for Adhesion of bacteria to horse gastric mucosal epithelial cell: cells adhered to one gastric mucosal epithelial cell, 37° C., Giemsa stain
Experimental: Meanwhile, gastric mucosal epithelial tissue pieces (1 cm^2) taken from a horse were added to 3 ml (the cell number of each bacterial strain: about 3·10^8 cells/ml) of cell culture solutions of the five bacterial stains (A) and (B) obtained in Production Example 1 above, followed by culture with shaking at 37° C. Then, the gastric mucosal epithelial tissue pieces were washed with a buffer (composition: 0.8% NaCl; 0.121% K2HPO4; 0.034% KH2PO4; pH 7.2) several times, and the gastricmucosal epithelial cells were scraped off from the gastric mucosal epithelial tissue pieces under a stereomicroscope, followed by Giemsa stain. The resultant cells were used to count the number of cells of each bacterial strain that adhered to one gastric mucosal epithelial cell under a microscope, and the adhesion was evaluated.

[2] = Proliferative activity test in skim milk media; assay type: cell-based; design: key to Proliferative activity 24 hours later SM / Proliferative activity 24 hours later YE / Proliferative activity 24 hours later P / Proliferative activity 24 hours later YP / Proliferative activity 48 hours later SM / Proliferative activity 48 hours later YE / Proliferative activity 48 hours later P / Proliferative activity 48 hours later YP: ∘: completely solidified culture solution due to proliferated cells; Δ: semifluid culture solution with slightly proliferated cells; x: liquid culture solution with unproliferated cells; details: for Proliferative activity 24 hours later P / Proliferative activity 48 hours later P: 0.1% peptone +10% skim milk; for Proliferative activity 24 hours later P / Proliferative activity 48 hours later P / Proliferative activity 24 hours later YP / Proliferative activity 48 hours later YP / Proliferative activity 24 hours later YE / Proliferative activity 48 hours later YE / Proliferative activity 24 hours later SM / Proliferative activity 48 hours later SM: 37° C.; for Proliferative activity 24 hours later YP / Proliferative activity 48 hours later YP: 0.1% yeast extract +0.1% peptone +10% skim milk; for Proliferative activity 24 hours later YE / Proliferative activity 48 hours later YE: 0.1% yeast extract +10% skim milk; for Proliferative activity 24 hours later SM / Proliferative activity 48 hours later SM: 10% skim milk
Experimental: Four mediums, i.e., 10% skim milk (SM), 0.1% yeast extract (manufactured by Difco) +10% skim milk (YE), 0.1% peptone (manufactured by Difco) +10% skimmilk (P), and 0.1% yeast extract (manufactured by Difco) +0.1% peptone (manufactured by Difco) +10% skimmilk (YP) were subjected to high-pressure heat sterilization at 115° C. for 15 minutes, and then cell culture solutions of the five bacterial stains (A) and (B) obtained in Production Example 1 above (30 μl each) were separately inoculated into 3 ml of the respective mediums (the cell number of each bacterial strain: about 3·10^8 cells/ml), followed by culture at 37° C. for 24 hours and 48 hours. For proliferative activity tests, the culture solutions were evaluated based on the following criteria: completely solidified culture solution due to proliferated cells: “∘”; semifluid culture solution with slightly proliferated cells: “Δ”; and liquid culture solution with unproliferated cells: “x”.

[3] = tested on: five Lactobacillus bacterial stains (A) and (B); assay: Antibiotic resistance test, all five strains; assay type: cell-based
Experimental: (§1) The 11 antibiotics shown in Table 3 were separately added at concentrations of 100, 10, 1, 0.1, and 0 μg/ml, to thereby prepare MRS agar mediums (manufactured by Difco). Subsequently, cell culture solutions of the five bacterial stains (A) and (B) obtained in Production Example 1 (10 μl each) were separately inoculated into the respective antibiotic-containing MRS mediums (the cell number of each bacterial strain: about 1·10^8 cells/ml), followed by smear culture at 37° C. for 48 hours under anaerobic conditions. The proliferated bacteria were evaluated with the naked eye, and the […] for each antibiotic (μg/ml) were calculated.

[4] = tested on: L. reuteri YIT0480 strain; assay: Antibiotic resistance test, L. reuteri; assay type: cell-based, Lactobacillus reuteri
Experimental: as §1

[5] = Proliferative Activity Test 1 in presence of oxytetracycline hydrochloride; assay type: cell-based; design: key: ∘: fully proliferated; Δ: slightly proliferated; x: unproliferated; details: MRS agar, 37° C., 48 hours, anaerobic
Experimental: (§2) Meanwhile, the proliferative activity test in the presence of an antibiotic was performed using cell culture solutions containing (A) L. equi YIT0483 strain and (B) at least one selected from the four Lactobacillus strains in combination.
(§3) MRS agar mediums (manufactured by Difco) to which oxytetracycline hydrochloride was added as an antibiotic at concentrations of 10, 5, 2, and 0 µg/ml were prepared. Subsequently, a cell culture solution of only (A) L. equi strain and a mixed cell culture solution of (A) L. equi strain and (B) L. reuteri strain (10 μl each) were separately inoculated into the respective antibiotic-containing MRS mediums (the cell number of each bacterial strain: about 1·10^6 cells/ml), followed by smear culture at 37° C. for 48 hours under anaerobic conditions. Then, the proliferative activities of the bacteria were evaluated with the naked eye.

[6] = Proliferative Activity Test 3 in presence of ofloxacin; assay type: cell-based; design: key: ∘: fully proliferated; Δ: slightly proliferated; x: unproliferated; details: MRS agar, 37° C., 48 hours, anaerobic
Experimental: as §2
as §3, with “ofloxacin” for “oxytetracycline hydrochloride”, “100, 50, 20,” for “10, 5, 2,”, “μg/ml” for “µg/ml”, “johnsonii strain or L. equi strain and L. crispatus” for “reuteri”

[7] = Proliferative Activity Test 2 in presence of gentamicin; assay type: cell-based; design: key: ∘: fully proliferated; Δ: slightly proliferated; x: unproliferated; details: MRS agar, 37° C., 48 hours, anaerobic
Experimental: as §2
as §3, with “gentamicin” for “oxytetracycline hydrochloride”, “100, 50, 20,” for “10, 5, 2,”, “μg/ml” for “µg/ml”, “johnsonii” for “reuteri”

[8] = tested on: L. johnsonii YIT0482 strain; assay: Antibiotic resistance test, L. johnsonii; assay type: cell-based, Lactobacillus johnsonii
Experimental: as §1

L. equi YIT0483 strain = assay: Antibiotic resistance test, L. equi; assay type: cell-based, Lactobacillus equi
Experimental: as §1

Compound | Adhesion of bacteria to horse gastric mucosal epithelial cell [1] | Proliferative activity 24 hours later P [2] | Proliferative activity 48 hours later P [2] | Proliferative activity 24 hours later YP [2] | Proliferative activity 48 hours later YP [2] | Proliferative activity 24 hours later YE [2] | Proliferative activity 48 hours later YE [2] | Proliferative activity 24 hours later SM [2] | Proliferative activity 48 hours later SM [2] | further results
Lactobacillus johnsonii YIT0482 strain [(B) L. johnsonii YIT0482 strain] | + (1-9 cells adhered to one gastric mucosal epithelial cell) | ∘ | ∘ | ∘ | ∘ | ∘ | ∘ | x | x | 
Lactobacillus crispatus YIT0481 strain [(B) L. crispatus YIT0481 strain] | + (1-9 cells adhered to one gastric mucosal epithelial cell) | ∘ | ∘ | ∘ | ∘ | ∘ | ∘ | x | ∘ | 
Lactobacillus reuteri YIT0480 strain [(B) L. reuteri YIT0480 strain] | + (1-9 cells adhered to one gastric mucosal epithelial cell) | ∘ | ∘ | ∘ | ∘ | ∘ | ∘ | x | x | 
COc1cc(NS(=O)(=O)c2ccc(N)cc2)ncn1 [Sulfamonomethoxine] |  |  |  |  |  |  |  |  |  | Resistance of the strains to the antibiotic (in words) [3]: excellent resistance
Lactobacillus salivarius YIT0479 strain [(B) L. salivarius YIT0479 strain] | ++ (10-99 cells adhered to one gastric mucosal epithelial cell) | ∘ | ∘ | ∘ | ∘ | ∘ | ∘ | x | ∘ | 
CC1(C)S[C@@H]2[C@H](NC(=O)[C@H](N)c3ccccc3)C(=O)N2[C@H]1C(=O)O [Ampicillin] |  |  |  |  |  |  |  |  |  | Resistance of the strain to the antibiotic (in words) [4]: particularly excellent resistance
Lactobacillus equi YIT0483 strain [(A) L. equi YIT0483 strain] | ++ (10-99 cells adhered to one gastric mucosal epithelial cell) | ∘ | ∘ | ∘ | ∘ | ∘ | ∘ | ∘ | ∘ | Proliferative activity, Oxytetracycline 0 μg/ml ([5]; oxytetracycline 0 μg/ml): ∘; Proliferative activity, Oxytetracycline 2 μg/ml ([5]; oxytetracycline 2 μg/ml): x; Proliferative activity, Oxytetracycline 5 μg/ml ([5]; oxytetracycline 5 μg/ml): x; Proliferative activity, Oxytetracycline 10 μg/ml ([5]; oxytetracycline 10 μg/ml): x; Proliferative activity, Ofloxacin 0 μg/ml ([6]; ofloxacin 0 μg/ml): ∘; Proliferative activity, Ofloxacin 20 μg/ml ([6]; ofloxacin 20 μg/ml): x; Proliferative activity, Ofloxacin 50 μg/ml ([6]; ofloxacin 50 μg/ml): x; Proliferative activity, Ofloxacin 100 μg/ml ([6]; ofloxacin 100 μg/ml): x; Adhesion to horse gastric mucosal epithelial cells (in words) [1]: excellent; Proliferative activity (in words) ([2]; under the respective medium conditions): excellent proliferative activity; Proliferative activity, Genatmicin 0 μg/ml ([7]; gentamicin 0 μg/ml): ∘; Proliferative activity, Genatmicin 20 μg/ml ([7]; gentamicin 20 μg/ml): Δ; Proliferative activity, Genatmicin 50 μg/ml ([7]; gentamicin 50 μg/ml): x; Proliferative activity, Genatmicin 100 μg/ml ([7]; gentamicin 100 μg/ml): x
Gentamicin |  |  |  |  |  |  |  |  |  | Resistance of the strain to the antibiotic (in words) [8]: excellent specific resistance
CC(=O)OCC1=C(C(=O)O)N2C(=O)[C@@H](NC(=O)Cc3cccs3)[C@H]2SC1 [Cefalotin sodium] |  |  |  |  |  |  |  |  |  | Resistance of the strain to the antibiotic (in words) [4]: particularly excellent resistance
Bactramin |  |  |  |  |  |  |  |  |  | Resistance of the strains to the antibiotic (in words) [3]: excellent resistance
CC1(C)S[C@@H]2[C@H](NC(=O)Cc3ccccc3)C(=O)N2[C@H]1C(=O)O [Benzylpenicillin] |  |  |  |  |  |  |  |  |  | Resistance of the strain to the antibiotic (in words) [4]: stronger resistance
CO/N=C(\C(=O)N[C@@H]1C(=O)N2C(C(=O)O)=C(CSc3nc(=O)c(=O)[nH]n3C)CS[C@H]12)c1csc(N)n1 [Ceftriaxone sodium] |  |  |  |  |  |  |  |  |  | Resistance of the strain to the antibiotic (in words) (L. equi YIT0483 strain): excellent specific resistance
CN[C@@H]1[C@H](O[C@H]2[C@H](O[C@H]3[C@H](O)[C@@H](O)[C@H](NC(=N)N)[C@@H](O)[C@@H]3NC(=N)N)O[C@@H](C)[C@]2(O)CO)O[C@@H](CO)[C@H](O)[C@H]1O [Dihydrostreptomycin] |  |  |  |  |  |  |  |  |  | Resistance of the strains to the antibiotic (in words) [3]: excellent resistance
